Reference: article PMC4133348, “Domain Organization, Catalysis and Regulation of Eukaryotic Cystathionine Beta-Synthases” (PLoS ONE, 2014)
One block for each molecule: values may come before it.

How the values were obtained:
[1] = biological target: T1, yCBS (Saccharomyces cerevisiae, UniProt P32582); assay: isothermal titration calorimetry; format: binding
T1 construct: gene CYS4
T1 sequence (P32582 1-507): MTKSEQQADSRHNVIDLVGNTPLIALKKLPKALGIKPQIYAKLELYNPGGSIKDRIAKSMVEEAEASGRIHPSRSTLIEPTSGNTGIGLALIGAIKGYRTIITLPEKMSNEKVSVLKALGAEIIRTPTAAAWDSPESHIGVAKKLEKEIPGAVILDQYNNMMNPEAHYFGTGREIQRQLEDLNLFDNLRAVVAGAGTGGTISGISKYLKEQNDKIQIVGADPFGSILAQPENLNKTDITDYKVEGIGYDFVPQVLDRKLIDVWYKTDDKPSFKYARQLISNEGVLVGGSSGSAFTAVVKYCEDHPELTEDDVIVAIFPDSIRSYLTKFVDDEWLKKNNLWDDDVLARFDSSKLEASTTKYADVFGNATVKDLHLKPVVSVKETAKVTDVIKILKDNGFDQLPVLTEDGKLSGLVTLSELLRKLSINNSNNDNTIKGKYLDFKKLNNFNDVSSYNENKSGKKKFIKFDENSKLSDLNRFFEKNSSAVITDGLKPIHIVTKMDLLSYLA

[2] = biological target: T1, yCBS; assay: differential scanning calorimetry; format: binding; details: 100 µM AdoMet, 20 mM HEPES pH 7.4, 50 µM PLP, 3 °C/min
[3] = biological target: T2, hCBS (Homo sapiens, UniProt P35520); assay: […]serine radioisotope assay of canonical reaction (activation); format: biochemical; details: 10 mM L-serine, 10 mM L-homocysteine, 0.2 mM PLP, pH 8.6, 37 °C; allosteric activator
T2 construct: gene CBS; full-length, permanent C-terminal 6xHis, E. coli, homotetramer of 63 kDa polypeptides, heme-containing
T2 sequence (P35520 1-551): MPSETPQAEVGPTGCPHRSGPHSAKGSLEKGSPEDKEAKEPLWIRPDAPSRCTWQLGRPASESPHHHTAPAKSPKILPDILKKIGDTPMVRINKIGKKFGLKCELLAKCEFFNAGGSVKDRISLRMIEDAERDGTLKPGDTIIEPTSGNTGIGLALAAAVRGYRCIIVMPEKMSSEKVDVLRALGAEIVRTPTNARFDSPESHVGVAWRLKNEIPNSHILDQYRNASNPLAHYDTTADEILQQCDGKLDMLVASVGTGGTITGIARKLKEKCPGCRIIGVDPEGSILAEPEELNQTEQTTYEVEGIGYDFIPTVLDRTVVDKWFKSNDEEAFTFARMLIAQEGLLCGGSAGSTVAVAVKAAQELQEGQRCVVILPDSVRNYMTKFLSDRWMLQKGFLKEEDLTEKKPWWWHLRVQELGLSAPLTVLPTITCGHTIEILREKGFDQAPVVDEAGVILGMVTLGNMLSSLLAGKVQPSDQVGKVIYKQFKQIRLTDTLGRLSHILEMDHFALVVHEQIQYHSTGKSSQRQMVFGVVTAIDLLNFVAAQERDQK

[4] = biological target: T3, dCBS (Drosophila melanogaster, UniProt Q9VRD9); assay: […]serine radioisotope assay of canonical reaction; format: biochemical; details: 10 mM L-serine, 10 mM L-homocysteine, 0.2 mM PLP, pH 8.6, 37 °C
T3 construct: gene Cbs; full-length, permanent C-terminal 6xHis (pET28-C-dCBS), E. coli Rosetta2 (DE3), homodimer, heme-containing
T3 sequence (Q9VRD9 1-522): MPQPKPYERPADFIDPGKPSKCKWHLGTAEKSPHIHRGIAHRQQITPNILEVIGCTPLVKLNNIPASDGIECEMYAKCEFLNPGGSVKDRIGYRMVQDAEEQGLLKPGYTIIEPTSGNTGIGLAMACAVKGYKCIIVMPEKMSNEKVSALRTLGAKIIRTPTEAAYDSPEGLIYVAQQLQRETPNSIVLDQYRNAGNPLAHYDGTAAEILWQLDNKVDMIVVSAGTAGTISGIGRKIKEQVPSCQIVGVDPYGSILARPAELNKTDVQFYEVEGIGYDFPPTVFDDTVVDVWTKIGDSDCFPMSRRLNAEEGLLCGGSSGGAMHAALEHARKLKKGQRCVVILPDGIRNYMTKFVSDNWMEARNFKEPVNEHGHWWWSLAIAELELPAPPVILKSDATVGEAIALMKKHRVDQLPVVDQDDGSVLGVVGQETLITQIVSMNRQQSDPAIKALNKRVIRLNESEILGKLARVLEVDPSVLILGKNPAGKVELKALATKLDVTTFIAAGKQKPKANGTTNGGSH

[5] = biological target: T2, hCBS; assay: as above; format: biochemical; details: 10 mM L-serine, 10 mM L-homocysteine, 0.2 mM PLP, pH 8.6, 37 °C; no AdoMet
[6] = biological target: the molecule itself; assay: native gel or EMSA; purified enzymes (100 ng CBS per lane) separated in a 4–15% polyacrylamide gradient gel under native conditions, transferred to PVDF and probed with monoclonal anti-6xHis antibody; oligomeric state of each enzyme
[7] = biological target: T4, human cystathionine beta-synthase, full-length (human), P35520; assay: as above; details: remark: other sources report otherwise
T4 chain: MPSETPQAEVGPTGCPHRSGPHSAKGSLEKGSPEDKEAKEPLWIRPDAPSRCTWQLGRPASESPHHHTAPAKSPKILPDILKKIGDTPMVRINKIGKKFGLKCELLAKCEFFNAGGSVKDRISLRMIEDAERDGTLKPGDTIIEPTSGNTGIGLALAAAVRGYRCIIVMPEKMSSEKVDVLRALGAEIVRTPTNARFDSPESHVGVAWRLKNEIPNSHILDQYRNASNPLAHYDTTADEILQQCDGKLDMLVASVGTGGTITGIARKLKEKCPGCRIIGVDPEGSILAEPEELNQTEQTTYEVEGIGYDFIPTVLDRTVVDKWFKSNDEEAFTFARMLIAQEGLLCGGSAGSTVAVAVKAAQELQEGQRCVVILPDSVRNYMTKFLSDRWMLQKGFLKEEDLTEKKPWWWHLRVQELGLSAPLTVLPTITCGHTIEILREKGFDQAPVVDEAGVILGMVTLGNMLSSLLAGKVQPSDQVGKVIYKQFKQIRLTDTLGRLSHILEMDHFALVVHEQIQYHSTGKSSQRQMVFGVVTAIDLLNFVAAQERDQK

- Kd [1]: 5 ± 0.5 µM
- dTm [2]: ~ 0.2 °C
- fold increase in specific activity at 300 μM [3]: ~ 3.2 fold
Molecule: C[S+](CC[C@H](N)C(=O)O)C[C@H]1O[C@@H](n2cnc3c(N)ncnc32)[C@H](O)[C@@H]1O (stereo partly shown) [AdoMet]

Molecule: N[C@@H](CO)C(=O)O [Ser]
- [14C]serine radioisotope assay of canonical reaction [4]: specific activity compared to hCBS in the canonical condensation of Ser and Hcy
- [14C]serine radioisotope assay of canonical reaction [5]: specific activity compared to hCBS in the canonical condensation of Ser and Hcy

B1: 45 kDa hCBS (hCBS V414*), truncated human cystathionine beta-synthase lacking the regulatory domain (domain or fragment, UniProt P35520 1-413, looked up)
chain: MPSETPQAEVGPTGCPHRSGPHSAKGSLEKGSPEDKEAKEPLWIRPDAPSRCTWQLGRPASESPHHHTAPAKSPKILPDILKKIGDTPMVRINKIGKKFGLKCELLAKCEFFNAGGSVKDRISLRMIEDAERDGTLKPGDTIIEPTSGNTGIGLALAAAVRGYRCIIVMPEKMSSEKVDVLRALGAEIVRTPTNARFDSPESHVGVAWRLKNEIPNSHILDQYRNASNPLAHYDTTADEILQQCDGKLDMLVASVGTGGTITGIARKLKEKCPGCRIIGVDPEGSILAEPEELNQTEQTTYEVEGIGYDFIPTVLDRTVVDKWFKSNDEEAFTFARMLIAQEGLLCGGSAGSTVAVAVKAAQELQEGQRCVVILPDSVRNYMTKFLSDRWMLQKGFLKEEDLTEKKPWWWHLR
notes: cystathionine beta-synthase, Homo sapiens, C-terminally truncated by a stop at V414 (regulatory domain removed); not shown: 6xHis, C-terminal, kept
- stoichiometry N [6]: 2

B2: Drosophila melanogaster cystathionine beta-synthase, full-length (enzyme, UniProt Q9VRD9 1-522, looked up)
chain: MPQPKPYERPADFIDPGKPSKCKWHLGTAEKSPHIHRGIAHRQQITPNILEVIGCTPLVKLNNIPASDGIECEMYAKCEFLNPGGSVKDRIGYRMVQDAEEQGLLKPGYTIIEPTSGNTGIGLAMACAVKGYKCIIVMPEKMSNEKVSALRTLGAKIIRTPTEAAYDSPEGLIYVAQQLQRETPNSIVLDQYRNAGNPLAHYDGTAAEILWQLDNKVDMIVVSAGTAGTISGIGRKIKEQVPSCQIVGVDPYGSILARPAELNKTDVQFYEVEGIGYDFPPTVFDDTVVDVWTKIGDSDCFPMSRRLNAEEGLLCGGSSGGAMHAALEHARKLKKGQRCVVILPDGIRNYMTKFVSDNWMEARNFKEPVNEHGHWWWSLAIAELELPAPPVILKSDATVGEAIALMKKHRVDQLPVVDQDDGSVLGVVGQETLITQIVSMNRQQSDPAIKALNKRVIRLNESEILGKLARVLEVDPSVLILGKNPAGKVELKALATKLDVTTFIAAGKQKPKANGTTNGGSH
notes: Cloned by NcoI and HindIII into pET-28a; also called dCBS; source: E. coli Rosetta2 (DE3), purified (TALON, DEAE Sepharose); not shown: 6xHis, C-terminal, kept
- stoichiometry N [6]: 2

B3: yCBS L345*, truncated Saccharomyces cerevisiae cystathionine beta-synthase lacking the regulatory domain (domain or fragment, UniProt P32582 1-344, looked up)
chain: MTKSEQQADSRHNVIDLVGNTPLIALKKLPKALGIKPQIYAKLELYNPGGSIKDRIAKSMVEEAEASGRIHPSRSTLIEPTSGNTGIGLALIGAIKGYRTIITLPEKMSNEKVSVLKALGAEIIRTPTAAAWDSPESHIGVAKKLEKEIPGAVILDQYNNMMNPEAHYFGTGREIQRQLEDLNLFDNLRAVVAGAGTGGTISGISKYLKEQNDKIQIVGADPFGSILAQPENLNKTDITDYKVEGIGYDFVPQVLDRKLIDVWYKTDDKPSFKYARQLISNEGVLVGGSSGSAFTAVVKYCEDHPELTEDDVIVAIFPDSIRSYLTKFVDDEWLKKNNLWDDDV
notes: cystathionine beta-synthase, Saccharomyces cerevisiae, C-terminally truncated at L345 (pET28-C-yCBS L345*); Cloned by NcoI and XhoI into pET-28a; source: E. coli Rosetta2 (DE3), purified (TALON, DEAE Sepharose); not shown: 6xHis, C-terminal, kept
- stoichiometry N [6]: 2

- stoichiometry N [7]: 4
B4: human cystathionine beta-synthase, full-length, P35520 1-551 (enzyme)
chain: MPSETPQAEVGPTGCPHRSGPHSAKGSLEKGSPEDKEAKEPLWIRPDAPSRCTWQLGRPASESPHHHTAPAKSPKILPDILKKIGDTPMVRINKIGKKFGLKCELLAKCEFFNAGGSVKDRISLRMIEDAERDGTLKPGDTIIEPTSGNTGIGLALAAAVRGYRCIIVMPEKMSSEKVDVLRALGAEIVRTPTNARFDSPESHVGVAWRLKNEIPNSHILDQYRNASNPLAHYDTTADEILQQCDGKLDMLVASVGTGGTITGIARKLKEKCPGCRIIGVDPEGSILAEPEELNQTEQTTYEVEGIGYDFIPTVLDRTVVDKWFKSNDEEAFTFARMLIAQEGLLCGGSAGSTVAVAVKAAQELQEGQRCVVILPDSVRNYMTKFLSDRWMLQKGFLKEEDLTEKKPWWWHLRVQELGLSAPLTVLPTITCGHTIEILREKGFDQAPVVDEAGVILGMVTLGNMLSSLLAGKVQPSDQVGKVIYKQFKQIRLTDTLGRLSHILEMDHFALVVHEQIQYHSTGKSSQRQMVFGVVTAIDLLNFVAAQERDQK

B5: Saccharomyces cerevisiae cystathionine beta-synthase, full-length (enzyme, UniProt P32582 1-507, looked up)
chain: MTKSEQQADSRHNVIDLVGNTPLIALKKLPKALGIKPQIYAKLELYNPGGSIKDRIAKSMVEEAEASGRIHPSRSTLIEPTSGNTGIGLALIGAIKGYRTIITLPEKMSNEKVSVLKALGAEIIRTPTAAAWDSPESHIGVAKKLEKEIPGAVILDQYNNMMNPEAHYFGTGREIQRQLEDLNLFDNLRAVVAGAGTGGTISGISKYLKEQNDKIQIVGADPFGSILAQPENLNKTDITDYKVEGIGYDFVPQVLDRKLIDVWYKTDDKPSFKYARQLISNEGVLVGGSSGSAFTAVVKYCEDHPELTEDDVIVAIFPDSIRSYLTKFVDDEWLKKNNLWDDDVLARFDSSKLEASTTKYADVFGNATVKDLHLKPVVSVKETAKVTDVIKILKDNGFDQLPVLTEDGKLSGLVTLSELLRKLSINNSNNDNTIKGKYLDFKKLNNFNDVSSYNENKSGKKKFIKFDENSKLSDLNRFFEKNSSAVITDGLKPIHIVTKMDLLSYLA
notes: Cloned by NcoI and XhoI into pET-28a; also called yCBS; yCBS WT; source: E. coli Rosetta2 (DE3), purified (TALON, DEAE Sepharose); not shown: 6xHis, C-terminal, kept
- stoichiometry N [6]: 4
